Experimental data published in the supplement of paper PMC12370961.

What was measured:
Experiment in all cases: differential drug sensitivity score (dDSS) relative to sarcoma reference cohort mean DSS (DSS units (0-100 scale difference)); higher = more selective sensitivity than reference sarcomas
Conditions in all cases: exposure time: 72 h; concentration range: 10-10000 nM
CDS-ZH003 = tested on: CDS-ZH003 (patient-derived CIC-DUX4 sarcoma tumoroid)
Method: (§1)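 Drug response profiling of patient-derived Ewing sarcoma and CIC::DUX4 sarcoma tumoroid models (or cells tested directly after isolation from the tumor, 'direct'). The DSS is the normalised AUC (0-100); dDSS is the sample DSS minus the mean DSS of a 34-sarcoma reference cohort profiled in the same lab.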

CDS-ZH002 direct = tested on: CDS-ZH002 direct (CIC-DUX4 sarcoma cells right after isolation)
Method: as §1

ES-ZH016 direct = tested on: ES-ZH016 direct (Ewing sarcoma cells right after isolation)
Method: as §1

CDS-ZH001-2 = tested on: CDS-ZH001-2 (patient-derived CIC-DUX4 sarcoma tumoroid)
Method: as §1

ES-ZH008 = tested on: ES-ZH008 (patient-derived Ewing sarcoma tumoroid)
Method: as §1

ES-ZH016 = tested on: ES-ZH016 (patient-derived Ewing sarcoma tumoroid)
Method: as §1

ES-ZH002 = tested on: ES-ZH002 (patient-derived Ewing sarcoma tumoroid)
Method: as §1

CDS-ZH001 = tested on: CDS-ZH001 (patient-derived CIC-DUX4 sarcoma tumoroid)
Method: as §1

CDS-ZH002 = tested on: CDS-ZH002 (patient-derived CIC-DUX4 sarcoma tumoroid)
Method: as §1

ES-ZH001 = tested on: ES-ZH001 (patient-derived Ewing sarcoma tumoroid)
Method: as §1

ES-ZH009 = tested on: ES-ZH009 (patient-derived Ewing sarcoma tumoroid)
Method: as §1

ES-ZH007 = tested on: ES-ZH007 (patient-derived Ewing sarcoma tumoroid)
Method: as §1

ES-ZH004 = tested on: ES-ZH004 (patient-derived Ewing sarcoma tumoroid)
Method: as §1

| SMILES | differential drug sensitivity score (CDS-ZH003) | differential drug sensitivity score (CDS-ZH002 direct) | differential drug sensitivity score (ES-ZH016 direct) | differential drug sensitivity score (CDS-ZH001-2) | differential drug sensitivity score (ES-ZH008) | differential drug sensitivity score (ES-ZH016) | differential drug sensitivity score (ES-ZH002) | differential drug sensitivity score (CDS-ZH001) | differential drug sensitivity score (CDS-ZH002) | differential drug sensitivity score (ES-ZH001) | differential drug sensitivity score (ES-ZH009) | differential drug sensitivity score (ES-ZH007) | differential drug sensitivity score (ES-ZH004) |
| --- | --- | --- | --- | --- | --- | --- | --- | --- | --- | --- | --- | --- | --- |
| Cc1cn(-c2cc(NC(=O)c3ccc(C)c(Nc4nccc(-c5cccnc5)n4)c3)cc(C(F)(F)F)c2)cn1 [Nilotinib] | -0.7 | -0.7 | -0.7 | -0.7 | -0.6 | -0.7 | 4.1 | 0.6 | -0.7 | 0.5 | -0.4 | -0.3 | 1.6 |
| COc1ccc(C2=N[C@@H](c3ccc(Cl)cc3)[C@@H](c3ccc(Cl)cc3)N2C(=O)N2CCNC(=O)C2)c(OC(C)C)c1 [Nutlin-3] | 3.6 | 1 | 14 | 8.4 | 1.4 | 3.3 | 8 | -1.8 | -1.3 | -4.6 | -4.4 | -4.6 | -4.6 |
| COC1=CC(c2cc3ccccc3[nH]2)=N/C1=C\c1[nH]c(C)cc1C [Obatoclax] | -3 | 4.4 | 3.3 | -0.2 | 4 | 2.1 | 2.9 | -3.8 | -2.4 | -0.7 | 1.5 | 7.5 | 6.9 |
| O=C(c1cc(Cc2n[nH]c(=O)c3ccccc23)ccc1F)N1CCN(C(=O)C2CC2)CC1 [Olaparib] | -5.3 | -5.3 | 11.3 | -2 | 10.3 | 7.1 | 15 | -3.8 | -5.3 | 8.4 | -0.2 | 4 | 11.2 |
| COc1ncc(-c2ccc3nccc(-c4ccnnc4)c3c2)cc1NS(=O)(=O)c1ccc(F)cc1F [Omipalisib] | 5.6 | -3.7 | 2.7 | 8.8 | 11.4 | 2 | 12.8 | 6.3 | -4.5 | -3.7 | 9 | 6.3 | 0.9 |
| CC(C)c1cc(C(=O)N2Cc3ccc(CN4CCN(C)CC4)cc3C2)c(O)cc1O [Onalespib] | -1.5 | -2.7 | 6.1 | 0.4 | 7.7 | -3.1 | 9.5 | -3.5 | -6.3 | 3.6 | 4.9 | -3 | -1.2 |
| O=C(O)C(=O)O.[NH-][C@@H]1CCCC[C@H]1[NH-].[Pt+2] [Oxaliplatin] | -4.8 | 7.7 | -5 | 5.9 | 2.9 | 1.2 | -2 | 2.2 | 5.9 | -0.1 | -5 | 1 | 0.2 |
| Nc1ncc(-c2nc(N3CCOCC3)nc(N3CCOCC3)n2)c(C(F)F)n1 [PQR514] | -0.5 | -2.6 | 5.4 | 7 | 10.1 | 5 | 15.5 | 3.9 | -6.5 | -3.3 | 7.1 | -1.3 | 0.8 |
| Nc1cc(C(F)F)c(-c2nc(N3C4CCC3COC4)nc(N3C4CCC3COC4)n2)cn1 [PQR620] | 5 | -3.3 | -3.2 | 0.8 | 4.4 | -0.4 | 10.2 | 1.5 | -3.2 | 0.1 | 2.8 | 2 | 5.3 |
| C=CC(=O)N1CCN(CCCn2c(=O)c(-c3c(Cl)c(OC)cc(OC)c3Cl)cc3cnc(NC)nc32)CC1 [PRN1371] | -11.5 | -4.8 | 11.1 | -3.3 | 21.1 | 2.4 | 15.7 | -9.1 | -10.8 | 11.9 | -0.7 | 5.7 | 15.6 |
| CC(=O)O[C@H]1C(=O)[C@@]2(C)[C@H]([C@H](OC(=O)c3ccccc3)[C@]3(O)C[C@H](OC(=O)[C@H](O)[C@@H](NC(=O)c4ccccc4)c4ccccc4)C(C)=C1C3(C)C)[C@]1(OC(C)=O)CO[C@@H]1C[C@@H]2O [Paclitaxel] | -8 | -5.6 | 14 | 4.1 | 15.7 | 16.3 | 23 | 7.6 | -2.2 | 24.6 | 19.6 | 16.2 | 8.9 |
| CC(=O)c1c(C)c2cnc(Nc3ccc(N4CCNCC4)cn3)nc2n(C2CCCC2)c1=O [Palbociclib] | -1.6 | -0.3 | -7.7 | 10.4 | 5.8 | 0 | 11.4 | 6.1 | 1 | -2.5 | 2.9 | 6.9 | 2.4 |
| Cc1[nH]c2ccccc2c1CCNCc1ccc(/C=C/C(=O)NO)cc1 [Panobinostat] | -3.6 | 2 | 7.4 | 4.9 | 6.6 | 6.6 | 4 | -2.7 | -1.1 | 3.6 | 10.3 | 6.3 | 5.4 |
| Cc1ccc(Nc2nccc(N(C)c3ccc4c(C)n(C)nc4c3)n2)cc1S(N)(=O)=O [Pazopanib] | 0.4 | -1.4 | 17.4 | 14.6 | -2.9 | -0.7 | -2.9 | -2.9 | 0.6 | -2.9 | -2.9 | -2.9 | -2.9 |
| NS(=O)(=O)OC[C@@H]1C[C@@H](n2ccc3c(N[C@H]4CCc5ccccc54)ncnc32)C[C@@H]1O [Pevonedistat] | 0.7 | 7.6 | 1.9 | -2.1 | 5.9 | 8.3 | 9.3 | 8.7 | -1.6 | 11.4 | 2.9 | 3.6 | 2.4 |
